Columns and labels:
[1] = system: human lymphoblastoid cells CEM; experiment: Cell proliferation inhibition, CEM; type: cell-based; settings: in words
[2] = target: tubulin; experiment: Tubulin binding assay (fluorescence quenching, dissociation constant); settings: 2 μM tubulin, 25 mM PIPES pH 6.8, 30 min at 25° C.; double reciprocal plot; mean±SD, four experiments
Protocol: Noscapine and 9-aminonoscapine (0-150 μM) were incubated with 2 μM tubulin in 25 mM PIPES, pH 6.8, 3 mM MgSO4, and 1 mM EGTA for 30 min at 25° C. The fluorescence intensities of tubulin in the absence and presence of different concentrations of the agents were monitored in a JASCO FP-6500 spectrofluorometer (JASCO, Tokyo, Japan) using a cuvette of 0.3-cm path length.
The excitation wavelength was 295 nm. The inner filter effects were corrected using a formula: […],
where Aex and Aem are the absorbance at the excitation and emission wavelengths.
The dissociation constant (Kd) was estimated using the following equation. ΔF=ΔFmaxL/(Kd+L)
where, ΔF is change in the fluorescence intensity of the tubulin upon binding to noscapine or 9-aminonoscapine, ΔFmax is the maximum change in the fluorescence intensity of the protein when it is fully bound with noscapine or 9-aminonoscapine, and L is the concentration of the ligand.
The ΔFmax value was calculated by the GraphPad Prism 5 software. ΔF was calculated by subtracting the fluorescence intensity of tubulin in the absence of noscapine or 9-aminonoscapine from the fluorescence intensity of tubulin in the presence of different concentrations of noscapine or 9-aminonoscapine.
The data were statistically analyzed and curve fitted using GraphPad Prism 5 software. […]

[3] = system: 1A9 (ovarian cancer cells); experiment: Cell proliferation inhibition, 1A9; type: cell-based; settings: 1A9, in words
[4] = system: teniposide-resistant variant CEM/VM-1-5; experiment: Cell proliferation inhibition, CEM/VM-1-5; type: cell-based, human; settings: CEM/VM-1-5, in words
[5] = system: paclitaxel-resistant variant (1A9/PTX22); experiment: Cell proliferation inhibition, 1A9/PTX22; type: cell-based; settings: 1A9/PTX22, in words
[6] = system: vinblastine-resistant variant CEM/VLB100; experiment: Cell proliferation inhibition, CEM/VLB100; type: cell-based, human; settings: CEM/VLB100, in words
[7] = system: panel of 60 human tumor cell lines; experiment: NCI 60-tumor cell line panel, Sulforhodamine B proliferation assay; type: cell-based; settings: 48 h treatment, in words; IC50 values only in FIG. 2
Protocol: The panel of 60 human tumor cell lines is organized into subpanels representing leukemia, non-small cell lung, colon, CNS, melanoma, renal, ovarian, breast and prostrate cancer lines. Cells were treated with 9-aminonoscapine at increasing gradient concentrations for 48 h. The IC50 values, which stand for the drug concentration needed to prevent cell proliferation by 50% was then measured using an in vitro Sulforhodamine B assay. Panels show bar-graphically the comparison of IC50 values of 9-aminonoscapine (black bars) for cancer cell lines of various tissue origins.

[8] = system: tubulin; experiment: Sedimentation assay of tubulin polymerization (polymer mass); type: biochemical; settings: for Average % increase in polymer level: tubulin 10 μM, 37° C., 30 min
Protocol: Tubulin solution was centrifuged for 10 min at 80000 g at 4° C. Soluble tubulin was measured by Bradford method. Tubulin (10 μM) was mixed with different concentrations of 9-amino-Noscapine ([…]) in the assembly buffer (100 mM PIPES at pH 6.8, 3 mM MgSO4, 1 mM EGTA, 1 mM GTP, and 1 M sodium glutamate). A reaction control with DMSO was also set up.
Polymerization was carried on by maintaining the temperature at 37° C. in the water bath for 30 min. After polymerization, the reaction mixture was centrifuged at 120000 g at 30° C. for 30 min. The soluble tubulin content was measured by Bradford method. Polymer mass of tubulin was found out by deducting soluble tubulin mass from the total tubulin content.
Tubulin was polymerized in presence or absence of 9-aminonoscapine to observe its effect on polymer formation. Polymer mass of tubulin was measured by sedimentation assay. Before polymerization soluble tubulin comprises total tubulin. Total tubulin content was measured by measuring soluble tubulin by Bradford method. After polymerization, soluble tubulin content was measured and deducted from total tubulin content to find out the polymeric tubulin level.

SMILES | inhibition of cell proliferation [1] | Kd [2] [µM] | inhibition of cell proliferation [3] | inhibition of cell proliferation [4] | inhibition of cell proliferation [5] | inhibition of cell proliferation [6] | proliferation of various human cancer cells [7] | Average % increase in polymer level ([8]; 25 μM 9-aminonoscapine) [%] | Average % increase in polymer level ([8]; 50 μM 9-aminonoscapine) [%] | Average % increase in polymer level ([8]; 100 μM 9-aminonoscapine) [%] | Average % increase in polymer level ([8]; 100 μM 9-aminonoscapine, listed as 9-amino-noscapine) [%] | effect on the assembly of tubulin into microtubules in vitro ([8]; in words)
COc1ccc2c(c1OC)C(=O)O[C@@H]2[C@H]1c2c(c(N)c3c(c2OC)OCO3)CCN1C [9-aminonoscapine, (S)-6,7-dimethoxy-3-((R)-4-methoxy-6-methyl-9-amino-5,6,7,8-tetrahydro-[1,3]dioxolo[4,5-g]isoquinolin-5-yl)isobenzofuran-1(3H)-one] | effectively inhibits cell proliferation | 14 ± 1 | effectively inhibits cell proliferation | effectively inhibits cell proliferation | effectively inhibits cell proliferation | effectively inhibits cell proliferation | inhibits the proliferation | 2.8 ± 0.98 | 3.2 ± 3.6 | 6.3 ± 3.8 | 6.3±3.8 | negligible effect
COc1ccc2c(c1OC)C(=O)O[C@@H]2[C@H]1c2c(cc3c(c2OC)OCO3)CCN1C [noscapine, (S)-6,7-dimethoxy-3-((R)-4-methoxy-6-methyl-5,6,7,8-tetrahydro[1,3]-dioxolo-[4,5-g]isoquinolin-5-yl)isobenzo-furan-1(3H)-one] |  | 152 ± 1 |  |  |  |  |  |  |  |  |  | 
